Values after ≈ are worked out from the molar mass of the structure shown.

What all share (format): functional
Assay [1] has as its system Mycobacterium tuberculosis. Description: Antimycobacterial activity against Mycobacterium tuberculosis harbouring mmpL3 F644C mutant gene assessed as inhibition of bacterial growth by visual analysis.
For assay [2], the system named is Mycobacterium tuberculosis. Description: Antimycobacterial activity against Mycobacterium tuberculosis harbouring mmpL3 V684G mutant gene assessed as inhibition of bacterial growth by visual analysis.
Assay [3] relates to Mycobacterium tuberculosis. Description: Antimycobacterial activity against Mycobacterium tuberculosis harbouring mmpL3 L189R mutant gene assessed as inhibition of bacterial growth by visual analysis.
Assay [4] concerns Mycobacterium tuberculosis. The assay can be described thus: Antimycobacterial activity against Mycobacterium tuberculosis harbouring wild-type mmpL3 gene assessed as inhibition of bacterial growth by visual analysis.
The subject of assay [5] is Mycobacterium tuberculosis. Description: Antimycobacterial activity against Mycobacterium tuberculosis harbouring mmpL3 L567P mutant gene assessed as inhibition of bacterial growth by visual analysis.
Assay [6] relates to Mycobacterium tuberculosis. The assay can be described thus: Antimycobacterial activity against Mycobacterium tuberculosis harbouring mmpL3 S309C mutant gene assessed as inhibition of bacterial growth by visual analysis.
For assay [7], the system named is Mycobacterium tuberculosis. Description: Antimycobacterial activity against Mycobacterium tuberculosis harbouring mmpL3 S288T mutant gene assessed as inhibition of bacterial growth by visual analysis.
In assay [8] the test system is Mycobacterium tuberculosis. Description: Antimycobacterial activity against Mycobacterium tuberculosis harbouring mmpL3 S591l mutant gene assessed as inhibition of bacterial growth by visual analysis.
In assay [9] the test system is Mycobacterium tuberculosis. The assay can be described thus: Antimycobacterial activity against Mycobacterium tuberculosis harbouring mmpL3 G253E mutant gene assessed as inhibition of bacterial growth by visual analysis.
The subject of assay [10] is Mycobacterium tuberculosis. The assay can be described thus: Antimycobacterial activity against Mycobacterium tuberculosis harbouring mmpL3 V684A mutant gene assessed as inhibition of bacterial growth by visual analysis.

By MIC is commonly meant the lowest concentration found to suppress growth. As for `CC[C@H]1OC(=O)[C@H](C)[C@@H](O[C@H]2C[C@@](C)(OC)[C@@H](O)[C@H](C)O2)[C@H](C)[C@@H](O[C@@H]2O[C@H](C)C[C@H](N(C)C)[C@H]2O)[C@](C)(OC)C[C@@H](C)C(=O)[C@H](C)[C@@H](O)[C@]1(C)O` [CLARITHROMYCIN], the MIC in assay [1], in assay [2], in [3], in assay [4], in assay [5] and in assay [6] was 0.5 mg/L (≈ 0.668 µM) each time. The MIC in assay [7], in [8] and in assay [9] was 0.5 mg/L (≈ 0.668 µM) throughout.

In the case of `C[C@@H]1[C@H]2C[C@@H](C[C@H]1NC(=O)CNc1cccc(Cl)c1)C2(C)C`, the MIC was found to be 4 mg/L (≈ 12.5 µM) in [1]; 2 mg/L (≈ 6.23 µM) in assay [2]; 4 mg/L (≈ 12.5 µM) in assay [3]; 1 mg/L (≈ 3.12 µM) in assay [4]; 2 mg/L (≈ 6.23 µM) in [5]; 8 mg/L (≈ 24.9 µM) in [6]. Also, the MIC turned out to be 16 mg/L (≈ 49.9 µM) in assay [7], 2 mg/L (≈ 6.23 µM) in assay [10], 4 mg/L (≈ 12.5 µM) in [8] and 4 mg/L (≈ 12.5 µM) in assay [9].

In the case of `O=C(CNc1cccc(OC(F)(F)F)c1)NC12CC3CC(CC(C3)C1)C2`, the MIC came to 0.5 mg/L (≈ 1.36 µM) in assay [2]; 2 mg/L (≈ 5.43 µM) in assay [3]; 0.5 mg/L (≈ 1.36 µM) in assay [4]; 2 mg/L (≈ 5.43 µM) in [5]; 4 mg/L (≈ 10.9 µM) in [6]; 8 mg/L (≈ 21.7 µM) in assay [7]. In addition, the MIC in [10] is 1 mg/L (≈ 2.71 µM); in [8], 4 mg/L (≈ 10.9 µM); in [9] it was 4 mg/L (≈ 10.9 µM).
